Source: patent US7538222B2, “N-substituted piperidine derivatives as serotonin receptor agents” (ACADIA Pharmaceuticals, Inc., priority 2002, dated 2009)

Test system: Male NSA mice
Test: In vivo determination of behavioral effects (motor activity / MK-801 hyperactivity), minimum effective dose
Details: p.o., lowest dose significantly different from vehicle control (distance traveled)
Method: Animals and Apparatus. Male NSA mice (Harlan; San Deigo, Calif.) were used as subjects. Mice weighed 20-30 g. Animals were housed 8/cage in the One Cage system (One Cage; Lab Products, Inc., Seaford, Del.) with bedding (⅛ inch Bed “O” Cob; Harlan Teklad, Madison, Wis.) in a room with controlled temperature 22±3° C. and a 12 hour light:dark cycle (lights on 6 am). Water and standard rodent chow (Harlan Teklad) were continuously available in the home cage. For testing, plastic locomotor activity cages (20×20×30 cm; AccuScan Instruments, Columbus, Ohio) were equipped with photocell beams for monitoring horizontal activity. Data were collected using Versamax computer software (AccuScan Instruments).
For determination of spontaneous activity, test compounds were administered alone (s.c. 10 min or p.o. 30 min before the session). For hyperactivity experiments, mice were injected with 0.3 mg/kg MK-801 i.p. 15 min presession (the peak dose for producing hyperactivity in an inverted-U dose-effect curve as determined in pilot experiments) in combination with vehicle or test compound. Motor activity data were collected during a 15 min session in a lit room. Mice had no prior exposure to the motor cages. Each dose or dose combination was tested in a separate group of mice (n=8).
Distance traveled (cm) was calculated and averaged across animals in a group. […]

For `CC(C)COc1ccc(CC(=O)N(Cc2ccc(F)cc2)C2CCN(CCCN3C(=O)OC[C@@H]3C(C)C)CC2)cc1.O=C(O)C(=O)O` [117NLS01, N-(4-Fluorobenzyl)-2-(4-isobutoxyphenyl)-N-{1-[3-(4-(S)-isopropyl-2-oxo-oxazolidin-3-yl)propyl]piperidin-4-yl}acetamide], the “MED in vivo po” value was 1 mg/kg.
